Reference: US9156874B2, “Double-liver-targeting phosphoramidate and phosphonoamidate prodrugs” (Nanjing Molecular Research, Inc., priority 2011, dated 2015)

Legend:
[1] = Pharmacokinetic (PK) study in rats, plasma and liver levels by LC/MS-MS; type: in vivo, SD rats; settings: for oral bioavailability: rats
Description: Pharmacokinetic (PK) study of ester prodrug (FDURPAE), parent drug (FDUR) and prodrug in sodium salt form (FDURPAN) in rats were completed according to following procedure.
SD rats (250-300 g, male, N=24) were used for FDURPAE, FDUR and FDURPAN, purchased from SLAC Laboratory Animal Co. LTD Qualification No.: SCXK SH 2007-0005, 13264. FDURPAE (0.096 mmol, 52.17 mg/kg) and FDUR (0.096 mmol, 23.7 mg/kg) were dosed orally by gavage with a single dose of each compound to rats in a volume of 5 mL/kg in 0.5% carboxymethylcellulose sodium. FDURPAN (0.096 mmol, 50.24 mg) was dosed both orally or iv by gavage with a single dose to rats in a volume of 5 mL/kg in water. The animal was restrained manually at designated time points. Approximately 500 μL of blood/time point was collected into K2EDTA tube via cardiac puncture for terminal bleeding under anesthesia with Isoflurane. Blood samples were put on ice after collection and then centrifuged to obtain plasma sample (2000 g, 5 min, 4° C.) within 15 minutes of sampling. […] All the plasma samples were immediately quenched for protein precipitation. Liver samples were removed at designated time points by first sacrificing the animal by CO2 inhalation, then perfusing the liver with ice cold saline and removing the left middle liver lobe, which was then snap frozen in dry ice. Liver samples were stored at approximately −80° C. until analysis. The liver homogenate was then processed for further analysis by LC/MS-MS. Plasma and liver samples were stored at approximately −80° C. until analysis.
Concentrations of parent drug and possible metabolites in both plasma and liver including FDURPAN (stable metabolite of FDURPAE), FDUR, 5FU and FDUR-MP were determined by LC/MS-MS, respectively.

HCV subgenomic replicon = assay: HCV replicon assay (Huh-7, luciferase reporter); type: cell-based
Description: Anti-Hepatitis C Activity. Anti-HCV activity and cytotoxicity of compounds disclosed herein were assayed following the method described in WO 2007/027248.
The anti-HCV activity and toxicity of the exemplary compounds can be tested in two biological assays—a cell-based HCV replicon assay and cytotoxicity assay (WO 2007/027248).
A human hepatoma cell line (Huh-7) containing replicating HCV subgenomic replicon with a luciferase reporter gene (luc-ubi-neo) was used to evaluate anti-HCV activity of the compounds. In this assay, level of luciferase signal correlates with the viral RNA replication directly. The HCV replicon-reporter cell line (NK/luc-ubi-neo) was cultured in DMEM medium supplemented with 10% fetal bovine serum and 0.5 mg/ml Geneticin (G418). Cells were maintained in a subconfluent state to ensure high levels of HCV replicon RNA synthesis.
To evaluate the antiviral activity of compounds, serial dilutions were prepared with concentrations ranging from 0.14 to 300 μM. Diluted compounds were transferred to a 96-well plate followed by the addition of replicon cells (6000 cells per well). Cells were incubated with the compounds for 48 h after which luciferase activity was measured. Reduction of luciferase signal reflected the decrease of HCV replicon RNA in the treated cells and used to determine the EC50 value (concentration which yielded a 50% reduction in luciferase activity).

Compound | detection of active drug FDUR-MP in plasma ([1]; rat, oral administration) | detection of metabolite 5FU in plasma ([1]; rat, oral administration) | oral bioavailability [1] | anti-HCV activity (HCV subgenomic replicon)
Cc1ccccc1CO[P@](=O)(N[C@H](C)C(=O)OC(C)C)OCC1OC(n2cc(F)c(=O)[nH]c2=O)CC1O (single isomer, unassigned) [FDURPAE (F5)] | could not be detected | could not be detected | significantly improved oral bioavailability | 
CC1(F)C(O)C(COP(=O)(NCc2ccccc2)OCc2ccccc2)OC1n1ccc(=O)[nH]c1=O (stereo not drawn) [F2] |  |  |  | did not show any anti-HCV activity
Cc1ccccc1COP(=O)(NCc1ccccc1)OCC1OC(n2ccc(=O)[nH]c2=O)C(C)(F)C1O (stereo not drawn) [F3] |  |  |  | potent anti-HCV activity
Cc1ccccc1COP(=O)(NCc1ccccc1)OCC1OC(n2cc(F)c(=O)[nH]c2=O)CC1O (stereo not drawn) [F4] |  |  | very low | 
